Assay results: ChEMBL document CHEMBL1201862, “PubChem BioAssay data set” (2004)
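How tested: cells in 96-well plates exposed to compound for 48 hours at five concentrations. The concentration for 50% growth inhibition is given as GI50.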 Active and inactive are the calls of the source. Rule as the data show it: active = GI50 up to about 1.1 µM and inactive = higher.

How the values were obtained:
Experiment in all cases: DTP human tumour cell line panel, 48 h
786-0 = system: 786-0
A549 = system: A549
CCRF-CEM = system: CCRF-CEM
COLO 205 = system: COLO 205
EKVX = system: EKVX
HCT-116 = system: HCT-116
K562 = system: K562
KM12 = system: KM12
LOX IMVI = system: LOX IMVI
NCI-H23 = system: NCI-H23
OVCAR-3 = system: OVCAR-3
SF-268 = system: SF-268
SK-MEL-28 = system: SK-MEL-28
SK-MEL-2 = system: SK-MEL-2
SK-MEL-5 = system: SK-MEL-5
SW-620 = system: SW-620
U-251 = system: U-251
SR = system: SR

Row | SMILES | GI50 (786-0) | GI50 (A549) | GI50 (CCRF-CEM) | GI50 (COLO 205) | GI50 (EKVX) | GI50 (HCT-116) | GI50 (K562) | GI50 (KM12) | GI50 (LOX IMVI) | GI50 (NCI-H23) | GI50 (OVCAR-3) | GI50 (SF-268) | GI50 (SK-MEL-28) | GI50 (SK-MEL-2) | GI50 (SK-MEL-5) | GI50 (SW-620) | GI50 (U-251) | GI50 (SR)
1 | N#C/C(=C\c1ccc(CP(=O)(O)O)cc1)C(N)=O | > 100 µM (inactive) | > 100 µM (inactive) | > 100 µM (inactive) | > 100 µM (inactive) | > 100 µM (inactive) | > 100 µM (inactive) | > 100 µM (inactive) | > 100 µM (inactive) | > 100 µM (inactive) | > 100 µM (inactive) | > 100 µM (inactive) | > 100 µM (inactive) | > 100 µM (inactive) | > 100 µM (inactive) | > 100 µM (inactive) | > 100 µM (inactive) | > 100 µM (inactive) | –
2 | COc1cc(C)c(O)c(C(=O)O)c1 | > 100 µM (inactive) | > 100 µM (inactive) | > 100 µM (inactive) | > 100 µM (inactive) | – | > 100 µM (inactive) | > 100 µM (inactive) | > 100 µM (inactive) | > 100 µM (inactive) | > 100 µM (inactive) | > 100 µM (inactive) | > 100 µM (inactive) | > 100 µM (inactive) | > 100 µM (inactive) | > 100 µM (inactive) | > 100 µM (inactive) | > 100 µM (inactive) | > 100 µM (inactive)
3 | O=c1ccn([C@@H]2C[C@H](CO)C[S+]([O-])C2)c(=O)[nH]1 (some centres undefined) | > 100 µM (inactive) | > 100 µM (inactive) | > 100 µM (inactive) | > 100 µM (inactive) | > 100 µM (inactive) | > 100 µM (inactive) | > 100 µM (inactive) | > 100 µM (inactive) | > 100 µM (inactive) | > 100 µM (inactive) | > 100 µM (inactive) | > 100 µM (inactive) | > 100 µM (inactive) | > 100 µM (inactive) | > 100 µM (inactive) | > 100 µM (inactive) | > 100 µM (inactive) | –
4 | C=CC1(NS(=O)(=O)c2ccc(C)cc2)CCC(C(C)(C)C)CC1 (centres undefined) | 46.8 µM (inactive) | 80.9 µM (inactive) | > 100 µM (inactive) | > 100 µM (inactive) | – | > 100 µM (inactive) | > 100 µM (inactive) | > 100 µM (inactive) | – | – | 21.6 µM (inactive) | 27 µM (inactive) | > 100 µM (inactive) | 60.7 µM (inactive) | > 100 µM (inactive) | > 100 µM (inactive) | 35.6 µM (inactive) | 56 µM (inactive)
5 | NC(=O)CC(N/C=C1/N=C(c2ccccc2)OC1=O)C(=O)O (centres undefined) | > 100 µM (inactive) | > 100 µM (inactive) | > 100 µM (inactive) | > 100 µM (inactive) | > 100 µM (inactive) | > 100 µM (inactive) | > 100 µM (inactive) | > 100 µM (inactive) | > 100 µM (inactive) | > 100 µM (inactive) | > 100 µM (inactive) | > 100 µM (inactive) | > 100 µM (inactive) | > 100 µM (inactive) | > 100 µM (inactive) | > 100 µM (inactive) | > 100 µM (inactive) | –
6 | COc1cc([C@@H]2c3cc4c(cc3C(N)C3COC(=O)[C@@H]32)OCO4)cc(OC)c1O (some centres undefined) | 0.537 µM (active) | 0.337 µM (active) | 0.339 µM (active) | 0.13 µM (active) | – | 0.33 µM (active) | 0.225 µM (active) | – | 0.241 µM (active) | 0.373 µM (active) | – | 0.399 µM (active) | – | – | 0.244 µM (active) | 0.301 µM (active) | – | 0.0857 µM (active)
7 | CN(CCCCN)c1ccc2c(=O)[nH][nH]c(=O)c2c1 | > 100 µM (inactive) | > 100 µM (inactive) | > 100 µM (inactive) | > 100 µM (inactive) | > 100 µM (inactive) | > 100 µM (inactive) | > 100 µM (inactive) | > 100 µM (inactive) | > 100 µM (inactive) | 2.24 µM (inactive) | > 100 µM (inactive) | 13 µM (inactive) | > 100 µM (inactive) | > 100 µM (inactive) | > 10 µM (inactive) | > 100 µM (inactive) | > 100 µM (inactive) | –
8 | CN1N=C2NCCNC3=NN(C)/C(=N/CC/N=C/1S2)S3 | > 100 µM (inactive) | > 100 µM (inactive) | > 100 µM (inactive) | > 100 µM (inactive) | > 100 µM (inactive) | > 100 µM (inactive) | > 100 µM (inactive) | > 100 µM (inactive) | > 100 µM (inactive) | > 100 µM (inactive) | – | > 100 µM (inactive) | > 100 µM (inactive) | – | > 100 µM (inactive) | > 100 µM (inactive) | > 100 µM (inactive) | > 100 µM (inactive)
9 | NC(CCCNc1cccc(O)c1)C(=O)O (centres undefined) | > 100 µM (inactive) | > 100 µM (inactive) | > 100 µM (inactive) | > 100 µM (inactive) | > 100 µM (inactive) | > 100 µM (inactive) | > 100 µM (inactive) | – | > 100 µM (inactive) | – | > 100 µM (inactive) | > 100 µM (inactive) | > 100 µM (inactive) | > 100 µM (inactive) | > 100 µM (inactive) | > 100 µM (inactive) | > 100 µM (inactive) | > 100 µM (inactive)
10 | CC1(C)C(c2ccccc2)=NN(O)c2ccccc21 | > 100 µM (inactive) | > 100 µM (inactive) | > 100 µM (inactive) | > 100 µM (inactive) | > 100 µM (inactive) | > 100 µM (inactive) | > 100 µM (inactive) | > 100 µM (inactive) | – | > 100 µM (inactive) | > 100 µM (inactive) | > 100 µM (inactive) | > 100 µM (inactive) | > 100 µM (inactive) | > 100 µM (inactive) | > 100 µM (inactive) | > 100 µM (inactive) | –
11 | O=C1c2ccccc2C2CCC1c1ccccc12 (centres undefined) | 38.8 µM (inactive) | 25.2 µM (inactive) | 23.9 µM (inactive) | 19.2 µM (inactive) | 43.4 µM (inactive) | 19.6 µM (inactive) | 23.6 µM (inactive) | 31.6 µM (inactive) | 36.3 µM (inactive) | 24 µM (inactive) | 30.5 µM (inactive) | 31.1 µM (inactive) | 32.9 µM (inactive) | 32.1 µM (inactive) | 16.3 µM (inactive) | 39.2 µM (inactive) | 39.5 µM (inactive) | 20.5 µM (inactive)
12 | Cc1ccc(/C=C/C(=O)CCN(C)C)cc1 | 17.9 µM (inactive) | 20.7 µM (inactive) | 24.7 µM (inactive) | 16 µM (inactive) | – | 18.9 µM (inactive) | 32 µM (inactive) | 4.62 µM (inactive) | 16.3 µM (inactive) | 27.9 µM (inactive) | 20.3 µM (inactive) | 24.9 µM (inactive) | 19.4 µM (inactive) | – | 19.4 µM (inactive) | 16.6 µM (inactive) | 16.3 µM (inactive) | 21.4 µM (inactive)
13 | C=C[C@@]1(O)CCCC2=C(C(=O)OCC)CC[C@]21C | > 100 µM (inactive) | > 100 µM (inactive) | 44.7 µM (inactive) | > 100 µM (inactive) | > 100 µM (inactive) | – | 30.8 µM (inactive) | > 100 µM (inactive) | – | > 100 µM (inactive) | > 100 µM (inactive) | > 100 µM (inactive) | > 100 µM (inactive) | 90.8 µM (inactive) | 38.1 µM (inactive) | 54.7 µM (inactive) | > 100 µM (inactive) | 54.1 µM (inactive)
14 | Nc1ccccc1Nc1ccccc1C(=O)[O-].Nc1ccccc1Nc1ccccc1C(=O)[O-].[Zn+2] | > 100 µM (inactive) | > 100 µM (inactive) | 33 µM (inactive) | > 100 µM (inactive) | > 100 µM (inactive) | > 100 µM (inactive) | 62.4 µM (inactive) | > 100 µM (inactive) | – | > 100 µM (inactive) | 23.4 µM (inactive) | 45.6 µM (inactive) | > 100 µM (inactive) | 19.8 µM (inactive) | 91.4 µM (inactive) | > 100 µM (inactive) | > 100 µM (inactive) | –
15 | C[C@]1(CO)CCC[C@@]2(C)C1CC[C@H]1CC3C[C@]12CC[C@]3(C)O (some centres undefined) | > 100 µM (inactive) | 70.5 µM (inactive) | 0.213 µM (active) | 36.4 µM (inactive) | – | 49.8 µM (inactive) | 11.5 µM (inactive) | > 100 µM (inactive) | 90.6 µM (inactive) | 83.8 µM (inactive) | > 100 µM (inactive) | > 100 µM (inactive) | > 100 µM (inactive) | – | 17.9 µM (inactive) | > 100 µM (inactive) | 42.1 µM (inactive) | 83.2 µM (inactive)
16 | O=C1CCCN(c2ccccc2)N1 | > 100 µM (inactive) | > 100 µM (inactive) | – | – | > 100 µM (inactive) | > 100 µM (inactive) | > 100 µM (inactive) | > 100 µM (inactive) | > 100 µM (inactive) | – | > 100 µM (inactive) | > 100 µM (inactive) | > 100 µM (inactive) | > 100 µM (inactive) | > 100 µM (inactive) | > 100 µM (inactive) | > 100 µM (inactive) | > 100 µM (inactive)
17 | COc1cc2c[n+](C)c3c4cc(OC)c(OC)cc4c(OCCCCCCCCOc4cc5c6cc(OC)c(OC)cc6c[n+](C)c5c5cc(OC)c(OC)cc45)cc3c2cc1OC | 30.6 µM (inactive) | > 100 µM (inactive) | 24.8 µM (inactive) | – | > 100 µM (inactive) | > 100 µM (inactive) | 8.71 µM (inactive) | 72.8 µM (inactive) | > 100 µM (inactive) | > 100 µM (inactive) | > 100 µM (inactive) | > 100 µM (inactive) | > 100 µM (inactive) | > 100 µM (inactive) | 47.8 µM (inactive) | > 100 µM (inactive) | 12.9 µM (inactive) | 4.28 µM (inactive)
